According to US11858958B2, “Blank liposome with ginsenoside Rg3 or its analog as membrane materials and preparations and uses thereof” (Shanghai Ginsome Pharmatech Co., Ltd., priority 2018, dated 2024):
Values joined by “and” are separate entries in the source; they are usually repeats but may differ in a detail not shown here. Equal entries are not always repeated.

Tests used:
[1] = system: human breast cancer cell line (4T1); assay: In vitro cytotoxicity studies (DTX groups); format: cell-based
Description: For each concentration group, 4 replicates were set up. The whole experiment was independently repeated 3 times.
The in vitro cytotoxicity was evaluated using human breast cancer cell line (4T1).

[2] = system: in-situ glioma model (C6 cells); assay: Survival curve and median survival day; format: in vivo, nude mice
[3] = system: human gastric cancer cell (BGC-823); assay: In vivo pharmacological efficacy assay, relative tumor volume; set-up: species or system nude mice
Description: 2. In vivo pharmacological efficacy assay: A total of 72 subcutaneous tumor-bearing nude mice were randomerized into 8 groups (9 in each group), and intravenously injected with PBS solution (Control group,), Rg3, Rg3-blank, PTX-Cho-Lipo, Abraxane, PTX-Rg5-Gipo, PTX-Rg3-Gipo and PTX-Rh2-Gipo, via tail vein at a dose of 10 mg·kg^1. The changes of mice body weights in each group were recorded every 2 days, and the longest diameter and the shortest diameter of tumors were measured with vernier calipers. The tumor volume is calculated by the following formula: V=(dmax×dmin^2)/2, wherein dmin and dmax are respectively the shortest diameter and the longest diameter (mm) of the tumor; a relative tumor volume (RTV) is calculated according to the measurement results by the formula: RTV=TVn/TV0,
wherein TVn is the volume of the tumor measured every 2 days, TV0 is the volume of the tumor measured at day zero (the administration day).

[4] = system: rat C6 glioma cells; assay: In vitro drug efficiency assay, survival rate of glioma cells; format: cell-based
[5] = in words; cited from earlier work
[6] = system: human breast cancer cell 4T1; assay: In vivo drug efficacy assay, relative tumor volume (Rh2/PTX groups); set-up: species or system nude mice; settings: 4T1, tail vein 30 mg/kg
Description: To evaluate the drug efficacy in vivo, 45 subcutaneous tumor-bearing nude mice were randomized into 5 treatment groups (9 in each group) and intravenously injected with PBS solution (control group), ginsenoside Rh2 (Rh2 group), ginsenoside Rh2 blank liposome (Rh2-Blank group), conventional paclitaxel cholesterol liposome (PTX-Cho-Lipo group) and ginsenoside Rh2 paclitaxel liposome (PTX-Rh2-Gipo group) via tail vein at a dose of 30 mg/kg. The changes of body weights of mice in each group were recorded every 2 days, and the longest diameter and the shortest diameter of tumors were measured with vernier calipers. The tumor volume was calculated by the following formula: V=(dmax×dmin^2)/2, wherein dmin and dmax are respectively the shortest diameter and the longest diameter (mm) of the tumor; a relative tumor volume (RTV) was calculated according to the measurement results, by the formula: RTV=TVn/TV0, […], TV0 is the volume of the tumor measured at day zero (the administration day).

[7] = system: human breast cancer cell line (4T1); assay: In vitro drug efficacy assay, cell survival rate (Rh2/PTX groups)
Description: Logarithmically growing tumor cells were collected and resuspended in DMEM complete medium supplemented with 10% fetal bovine serum, 100 U/ml penicillin and 100 μg/ml streptomycin to a final cell density of 4×10^4 cells/ml. Then, 200 μl cell suspension solution was seeded into each well of a 96-well plate (with a concentration of 8×10^3 cells/well) and the plate was cultured in a CO2 cell culture incubator at 37° C. […] The group without replacing DMEM complete medium by anti-cancer drug solution was used as negative control. For each concentration group, 4 replicates were set up. The whole experiment was independently repeated 3 times. The cells were continuously cultured in a CO2 cell culture incubator at 37° C. […] Then discarded the supernatant, added 150 μl DMSO into each well, and shaked the plate for 10 min. The absorbance was measured at 490 nm using a microplate reader (Tecan infinite M 200 TECAN, Switzerland). The cell survival rate is calculated according to the following formula:

Compound: CC(=O)O[C@@]12CO[C@@H]1C[C@H](O)[C@@]1(C)C(=O)[C@H](O)C3=C(C)[C@@H](OC(=O)[C@H](O)[C@@H](NC(=O)OC(C)(C)C)c4ccccc4)C[C@@](O)([C@@H](OC(=O)c4ccccc4)[C@H]21)C3(C)C [DTX, docetaxel]
- Cell viability(%) ([1]; 4T1, Concentration 3.84E−05 μg/ml): 83.55%
- Cell viability(%) ([1]; 4T1, Concentration 7.68E−06 μg/ml): 86.66%
- viability at 0.00019 µg/mL ([1]; Homo sapiens, 4T1, Concentration 0.00019 μg/ml): 72.5%
- viability at 0.00096 µg/mL ([1]; Homo sapiens, 4T1, Concentration 0.00096 μg/ml): 61.6%
- viability at 0.0048 µg/mL ([1]; Homo sapiens, 4T1, Concentration 0.0048 μg/ml): 50.9%
- viability at 0.024 µg/mL ([1]; Homo sapiens, 4T1, Concentration 0.024 μg/ml): 49.9%
- viability at 0.12 µg/mL ([1]; Homo sapiens, 4T1, Concentration 0.12 μg/ml): 46.3%
- viability at 0.6 µg/mL ([1]; Homo sapiens, 4T1, Concentration 0.6 μg/ml): 48.9%
- viability at 3 µg/mL ([1]; Homo sapiens, 4T1, Concentration 3 μg/ml): 51.9%

Compound: CC(C)=CCC[C@](C)(O)[C@H]1CC[C@]2(C)[C@@H]1[C@H](O)C[C@@H]1[C@@]3(C)CC[C@H](O[C@@H]4O[C@H](CO)[C@@H](O)[C@H](O)[C@H]4O[C@@H]4O[C@H](CO)[C@@H](O)[C@H](O)[C@H]4O)C(C)(C)[C@@H]3CC[C@]12C [Rg3, Ginsenoside 20(S)-Rg3]
- Median survial ([2]; tail vein 10 mg·kg^−1): 29 days and 32 days
- number of survived mice ([2]; tail vein 10 mg·kg^−1, Time 12 d): 10
- number of survived mice ([2]; tail vein 10 mg·kg^−1, Time 14 d): 10
- number of survived mice ([2]; tail vein 10 mg·kg^−1, Time 16 d): 9
- number of survived mice ([2]; tail vein 10 mg·kg^−1, Time 18 d): 9
- number of survived mice ([2]; tail vein 10 mg·kg^−1, Time 20 d): 8
- number of survived mice ([2]; tail vein 10 mg·kg^−1, Time 22 d): 7
- number of survived mice ([2]; tail vein 10 mg·kg^−1, Time 24 d): 7
- number of survived mice ([2]; tail vein 10 mg·kg^−1, Time 26 d): 6
- number of survived mice ([2]; tail vein 10 mg·kg^−1, Time 28 d): 5
- number of survived mice ([2]; tail vein 10 mg·kg^−1, Time 30 d): 4
- number of survived mice ([2]; tail vein 10 mg·kg^−1, Time 32 d): 4
- number of survived mice ([2]; tail vein 10 mg·kg^−1, Time 34 d): 3
- number of survived mice ([2]; tail vein 10 mg·kg^−1, Time 36 d): 3
- number of survived mice ([2]; tail vein 10 mg·kg^−1, Time 38 d): 2
- number of survived mice ([2]; tail vein 10 mg·kg^−1, Time 40 d): 1
- number of survived mice ([2]; tail vein 10 mg·kg^−1, Time 42 d): 0
- number of survived mice ([2]; tail vein 10 mg·kg^−1, Time 44 d): 0
- number of survived mice ([2]; tail vein 10 mg·kg^−1, Time 46 d): 0
- number of survived mice ([2]; tail vein 10 mg·kg^−1, Time 48 d): 0
- number of survived mice ([2]; tail vein 10 mg·kg^−1, Time 50 d): 0
- number of survived mice ([2]; tail vein 10 mg·kg^−1, Time 52 d): 0
- number of survived mice ([2]; tail vein 10 mg·kg^−1, Time 54 d): 0
- number of survived mice ([2]; tail vein 10 mg·kg^−1, Time 56 d): 0
- number of survived mice ([2]; tail vein 10 mg·kg^−1, Time 58 d): 0
- number of survived mice ([2]; tail vein 10 mg·kg^−1, Time 60 d): 0
- number of survived mice ([2]; tail vein 10 mg·kg^−1, Time 62 d): 0
- Relative tumor volume ([3]; BGC-823, tail vein 10 mg·kg^1, time 1 d): 166.88
- Relative tumor volume ([3]; BGC-823, tail vein 10 mg·kg^1, time 3 d): 267.38
- Relative tumor volume ([3]; BGC-823, tail vein 10 mg·kg^1, time 5 d): 317.96
- Relative tumor volume ([3]; BGC-823, tail vein 10 mg·kg^1, time 7 d): 417.96
- Relative tumor volume ([3]; BGC-823, tail vein 10 mg·kg^1, time 9 d): 717.96
- Relative tumor volume ([3]; BGC-823, tail vein 10 mg·kg^1, time 11 d): 1340.69
- Relative tumor volume ([3]; BGC-823, tail vein 10 mg·kg^1, time 13 d): 1636.89
- Relative tumor volume ([3]; BGC-823, tail vein 10 mg·kg^1, time 15 d): 2034.43
- Relative tumor volume ([3]; BGC-823, tail vein 10 mg·kg^1, time 17 d): 2034.43
- Relative tumor volume ([3]; BGC-823, tail vein 10 mg·kg^1, time 19 d): 2034.43
- Relative tumor volume ([3]; BGC-823, tail vein 10 mg·kg^1, time 21 d): 2034.43
- Relative tumor volume ([3]; BGC-823, tail vein 10 mg·kg^1, time 23 d): 2034.43
- Cell Viability ([4]; C6, C 0.001 μg/ml (Table 10)): 100
- Cell Viability ([4]; C6, C 0.003 μg/ml (Table 10)): 98.82
- Cell Viability ([4]; C6, C 0.01 μg/ml (Table 10)): 92.42
- Cell Viability ([4]; C6, C 0.03 μg/ml (Table 10)): 92.03
- Cell Viability ([4]; C6, C 0.08 μg/ml (Table 10)): 94.23
- Cell Viability ([4]; C6, C 0.25 μg/ml (Table 10)): 95.43
- Cell Viability ([4]; C6, C 0.74 μg/ml (Table 10)): 92.822
- Cell Viability ([4]; C6, C 2.22 μg/ml (Table 10)): 96.16
- Cell Viability ([4]; C6, C 6.67 μg/ml (Table 10)): 95.02
- Cell Viability ([4]; C6, C 20 μg/ml (Table 10)): 89.02
- solubility in diethyl ether and chloroform [5]: insoluble in diethyl ether and chloroform
- solubility in methanol and ethanol [5]: soluble in methanol and ethanol
- solubility in water [5]: poorly soluble in water

Compound: CC(C)=CCC[C@](C)(O)[C@H]1CC[C@]2(C)[C@@H]1[C@H](O)C[C@@H]1[C@@]3(C)CC[C@H](O[C@@H]4O[C@H](CO)[C@@H](O)[C@H](O)[C@H]4O)C(C)(C)[C@@H]3CC[C@]12C [Rh2, ginsenoside Rh2]
- Relative tumor volume ([6]; time 0 d): 100.00
- Relative tumor volume ([6]; time 3 d): 200.94
- Relative tumor volume ([6]; time 6 d): 316.69
- Relative tumor volume ([6]; time 9 d): 276.04
- Relative tumor volume ([6]; time 12 d): 400.20
- Relative tumor volume ([6]; time 15 d): 473.53
- Relative tumor volume ([6]; time 18 d): 510.20
- Relative tumor volume ([6]; time 21 d): 898.52
- Cell Viability ([7]; 4T1, C 0.00366 μM): 104.04
- Cell Viability ([7]; 4T1, C 0.01097 μM): 92.85
- Cell Viability ([7]; 4T1, C 0.03292 μM): 94.47
- Cell Viability ([7]; 4T1, C 0.09877 μM): 99.90
- Cell Viability ([7]; 4T1, C 0.29630 μM): 98.07
- Cell Viability ([7]; 4T1, C 0.88889 μM): 96.04
- Cell Viability ([7]; 4T1, C 2.66667 μM): 104.25
- Cell Viability ([7]; 4T1, C 8.00000 μM): 100.73
- activity in vitro against human breast cancer cells (4T1) ([7]; in words): low activity
- solubility in diethyl ether and chloroform [5]: insoluble in diethyl ether and chloroform
- solubility in methanol and ethanol [5]: soluble in methanol and ethanol
- solubility in water [5]: poorly soluble in water
